Here are results for 24 molecules from patent US8173689B2 (Novartis AG, priority 2006, dated 2012).

A word on the inhibition: it is how much of the control response was suppressed.

Where two headings read alike, the source gives them in different places.

Experiment [1] concerns the target T1, cytoplasmic domain of the human CSF-1R (Homo sapiens, UniProt P07333).
T1 construct: Recombinant protein corresponding to the cytoplasmic domain of the human CSF-1R; purchased Invitrogen Corporation, Carlsbad, Calif; PV3249
T1 sequence (P07333 539-972 limits assumed): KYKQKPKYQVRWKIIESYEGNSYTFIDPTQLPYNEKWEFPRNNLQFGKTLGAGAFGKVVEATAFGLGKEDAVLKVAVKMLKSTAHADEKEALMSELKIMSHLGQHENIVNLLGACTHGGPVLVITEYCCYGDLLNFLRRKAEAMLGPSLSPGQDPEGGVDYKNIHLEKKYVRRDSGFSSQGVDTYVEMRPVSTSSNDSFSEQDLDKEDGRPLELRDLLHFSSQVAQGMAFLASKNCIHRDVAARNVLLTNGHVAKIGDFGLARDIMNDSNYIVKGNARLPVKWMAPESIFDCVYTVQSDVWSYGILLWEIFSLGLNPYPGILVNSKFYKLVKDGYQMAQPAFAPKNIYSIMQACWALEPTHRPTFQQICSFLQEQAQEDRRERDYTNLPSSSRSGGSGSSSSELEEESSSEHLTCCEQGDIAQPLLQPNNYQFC
Description: In vitro kinase assay for colony stimulating factor-1 receptor (AlphaScreen). The following applies: tested at about 1 μM, read-out: CSF-1R percent inhibition. It is filed as biochemical. The method, then:
The kinase activity of various protein tyrosine kinases can be measured by providing ATP and a suitable peptide or protein tyrosine-containing substrate, and assaying the transfer of phosphate moiety to the tyrosine residue. Recombinant protein corresponding to the cytoplasmic domain of the human CSF-1R was purchased from Invitrogen Corporation, Carlsbad, Calif. U.S.A. (#PV3249). For each assay, test compounds were serially diluted, starting at 25 μM with 3 fold dilutions, in DMSO in 384 well plates then mixed with an appropriate kinase reaction buffer consisting of 50 mM Hepes, 5 mM MgCl2, 10 mM MnCl2, 0.1% BSA, pH 7.5, 1.0 mM dithiothreitol, 0.01% Tween 80 plus 1 μM ATP. […] Added to the stopped reaction mix was 30 μL of PT66 Alphascreen beads (Perkin Elmer, Boston, Mass., U.S.A.). The reaction was incubated overnight and read on the Envision (Perkin Elmer). Phosphorylated peptide product was measured with the AlphaScreen system (Perkin Elmer) using acceptor beads coated with anti-phosphotyrosine antibody PT66 and donor beads coated with streptavidin that emit a fluorescent signal at the 520-620 nm emission wave length if in close proximity.
CSF-1R kinase was added at final concentration of 4 nM.
(In general: Bead proximity is the source of the signal in Alpha formats.)

Another experiment concerns the target T2, kinase domain of cKIT (Homo sapiens, UniProt P10721).
T2 construct: The kinase domain of cKIT was assayed in 50 mM Hepes; purchased Upstate 14-559
Description: Inhibition of cKIT kinase signaling in an in vitro biochemical assay (alphascreen). Particulars: tested at about 1 μM, read-out: cKit percent inhibition. How it is done:
(§1) The IC50 values for the inhibition of RTKs were determined in the alphascreen format measuring the inhibition by compound of phosphate transfer to a substrate by the respective enzyme. Briefly, the respective RTK domain purchased as human recombinant protein (cKIT Upstate #14-559, PDGFRb Invitrogen #P3082) were incubated with serial dilutions of compound in the presence of substrate and ATP concentrations within 3 times the Km of the enzyme.
(§2) Alphascreen PY20 beads were added to the stopped cKIT reactions and PY20 Ab/Protein A Alphascreen beads were added to the PDGFRβ stopped reactions. Both reactions were incubated overnight and read on the Alphascreen reader.

A further experiment concerns the target T3, kinase domain of PDGFRβ (Homo sapiens, UniProt P09619).
T3 construct: The kinase domain of PDGFRβ was assayed in 50 mM Hepes; purchased Invitrogen P3082
Description: Inhibition of PDGFRb kinase signaling in an in vitro biochemical assay (alphascreen). The following applies: tested at about 1 μM, read-out: PDGFRβ percent inhibition. How it is done:
as §1, §2

T2 sequence (P10721 589-937 limits assumed): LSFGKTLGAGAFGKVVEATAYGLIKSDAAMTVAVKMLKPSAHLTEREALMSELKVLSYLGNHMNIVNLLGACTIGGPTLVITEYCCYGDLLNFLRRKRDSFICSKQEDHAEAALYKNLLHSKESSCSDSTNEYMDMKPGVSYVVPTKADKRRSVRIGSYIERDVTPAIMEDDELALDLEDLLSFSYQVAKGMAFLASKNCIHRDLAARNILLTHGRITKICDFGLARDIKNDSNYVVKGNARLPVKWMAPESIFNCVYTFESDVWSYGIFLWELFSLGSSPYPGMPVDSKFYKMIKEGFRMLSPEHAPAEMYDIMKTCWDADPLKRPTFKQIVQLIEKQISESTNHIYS
T3 sequence (P09619 600-962 limits assumed): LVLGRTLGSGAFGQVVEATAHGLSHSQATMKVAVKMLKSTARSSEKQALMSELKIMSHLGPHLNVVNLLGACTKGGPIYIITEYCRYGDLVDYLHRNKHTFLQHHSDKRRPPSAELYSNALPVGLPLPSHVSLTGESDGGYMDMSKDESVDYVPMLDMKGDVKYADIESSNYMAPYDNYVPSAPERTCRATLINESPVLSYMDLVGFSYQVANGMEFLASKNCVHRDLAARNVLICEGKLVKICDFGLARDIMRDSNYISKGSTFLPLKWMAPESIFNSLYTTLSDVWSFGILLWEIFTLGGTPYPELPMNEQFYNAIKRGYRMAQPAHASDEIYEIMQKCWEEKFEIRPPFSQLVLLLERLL

As for `N#Cc1cc(Oc2ccc3nc(NCC4CCCCC4)oc3c2)ccn1` [Compound 82, 4-[2-(Cyclohexylmethyl-amino)-benzooxazol-6-yloxy]-pyridine-2-carbonitrile], the inhibition at 1 µM in experiment [1] was found to be 46%; on kinase domain of cKIT, 9%; on kinase domain of PDGFRβ, 0%.

As to `CNC(=O)c1cc(Oc2ccc3nc(N[C@@H]4CCC(=O)NC4)sc3c2)ccn1` [Compound 86], the inhibition at 1 µM in experiment [1] (compounds of Table 3) was found to be 63%; on kinase domain of cKIT (compounds of Table 3), 15%; at kinase domain of PDGFRβ (compounds of Table 3), 32%.

Regarding `CNC(=O)c1cc(Oc2ccc3nc(Nc4ccc5c(c4)OCO5)oc3c2)ccn1` [Compound 95, 4-[2-(Benzo[1,3]dioxol-5-yl-amino)-benzooxazol-6-yloxy]-pyridine-2-carboxylic acid methylamide], the inhibition at 1 µM came to 98% in experiment [1], 40% at kinase domain of cKIT and 8% on kinase domain of PDGFRβ.

On to `CNC(=O)c1cc(Oc2ccc3nc(NC(C)C)oc3c2)ccn1` [Compound 98, 4-(2-Isopropylamino-benzo-oxazol-6-yloxy)-pyridine-2-carboxylic acid methylamide], for which the values for the inhibition at 1 µM (in experiment [1]; at kinase domain of cKIT; on kinase domain of PDGFRβ) were 26%, 7% and 0%, respectively.

On to `CNC(=O)c1cc(Oc2ccc3nc(NCC(C)C)oc3c2)ccn1` [Compound 99, 4-(2-Isobutylamino-benzooxazol-6-yloxy)-pyridine-2-carboxylic acid methylamide], for which the inhibition at 1 µM in experiment [1] was found to be 63%; on kinase domain of cKIT, 12%; on kinase domain of PDGFRβ it was 9%.

Turning to `CNC(=O)c1cc(Oc2ccc3nc(NC[C@@H](C)O)sc3c2)ccn1` [Compound 99], the inhibition at 1 µM in experiment [1] (compounds of Table 3) came out at 86%; on kinase domain of cKIT (compounds of Table 3) it was 0%; at kinase domain of PDGFRβ (compounds of Table 3), 0%.

`CNC(=O)c1cc(Oc2ccc3nc(NC(C)(C)C)oc3c2)ccn1` [Compound 100, 4-(2-tert-Butylamino-benzo-oxazol-6-yloxy)-pyridine-2-carboxylic acid methylamide]: the figures for the inhibition at 1 µM (in experiment [1]; on kinase domain of cKIT; at kinase domain of PDGFRβ) were 99%, 10% and 9%, respectively.

Turning to `CNC(=O)c1cc(Oc2ccc3nc(NC[C@H](C)O)sc3c2)ccn1` [Compound 100], the inhibition at 1 µM stood at 81% in experiment [1] (compounds of Table 3), 0% on kinase domain of cKIT (compounds of Table 3) and 6% at kinase domain of PDGFRβ (compounds of Table 3).

Regarding `CNC(=O)c1cc(Oc2ccc3nc(NCC4CCCO4)oc3c2)ccn1` (stereo not drawn) [Compound 102, 4-{2-[(Tetrahydro-furan-2-ylmethyl)-amino]-benzooxazol-6-yloxy}-pyridine-2-carboxylic acid methylamide], the inhibition at 1 µM amounted to 83% in experiment [1], 14% on kinase domain of cKIT and 0% on kinase domain of PDGFRβ.

On to `CNC(=O)c1cc(Oc2ccc3nc(NC4CCN(Cc5ccccc5)CC4)oc3c2)ccn1` [Compound 103, 4-[2-(1-Benzyl-piperidin-4-ylamino)-benzooxazol-6-yloxy]-pyridine-2-carboxylic acid methylamide], for which the values for the inhibition at 1 µM (in experiment [1]; on kinase domain of cKIT; on kinase domain of PDGFRβ) were 60%, 8% and 14%, respectively.

As to `CNC(=O)c1cc(Oc2ccc3nc(N(C)Cc4ccccc4)oc3c2)ccn1` [Compound 106, 4-[2-(Benzyl-methyl-amino)-benzooxazol-6-yloxy]-pyridine-2-carboxylic acid methylamide], the inhibition at 1 µM in experiment [1] was found to be 99%; on kinase domain of cKIT it was 2%; on kinase domain of PDGFRβ it was 0%.

Take `CNC(=O)c1cc(Oc2ccc3nc(NC4CCN(c5ccccc5)CC4)oc3c2)ccn1` [Compound 107, 4-[2-(1-Phenyl-piperidin-4-ylamino)-benzooxazol-6-yloxy]-pyridine-2-carboxylic acid methylamide]: the inhibition at 1 µM in experiment [1] came out at 67%; at kinase domain of cKIT, 8%; on kinase domain of PDGFRβ it was 0%.

Consider `CNC(=O)c1cc(Oc2ccc3nc(NC(=O)c4cccc5c4OCCO5)oc3c2)ccn1` [Compound 110, 4-{2-[(2,3-Dihydro-benzo-[1,4]dioxine-5-carbonyl)-amino]-benzooxazol-6-yloxy}-pyridine-2-carboxylic acid methylamide], for which the inhibition at 1 µM in experiment [1] was determined as 85%; on kinase domain of cKIT it was 16%; on kinase domain of PDGFRβ, 8%.

Take `NCc1cc(Oc2ccc3nc(NCC4CCCCC4)oc3c2)ccn1` [Compound 111, [6-(2-Aminomethyl-pyridin-4-yloxy)-benzooxazol-2-yl]-cyclohexylmethyl-amine]: the inhibition at 1 µM in experiment [1] stood at 25%; at kinase domain of cKIT it was 15%; at kinase domain of PDGFRβ it was 2%.

As to `CNC(=O)c1cc(Oc2ccc3nc(NCC4(C(=O)NC)CCCCC4)oc3c2)ccn1` [Compound 112, 4-{2-[(1-Methylcarbamoyl-cyclohexylmethyl)-amino]-benzooxazol-6-yloxy}-pyridine-2-carboxylic acid methylamide], the inhibition at 1 µM came out at 28% in experiment [1], 0% at kinase domain of cKIT and 5% on kinase domain of PDGFRβ.

As for `CNC(=O)c1cc(Oc2ccc3nc(NCC4CN(Cc5ccccc5)CCO4)oc3c2)ccn1` (stereo not drawn) [Compound 120, 4-{2-[(4-Benzyl-morpholin-2-ylmethyl)-amino]-benzooxazol-6-yloxy}-pyridine-2-carboxylic acid methylamide], the inhibition at 1 µM in experiment [1] is 75%; at kinase domain of cKIT, 5%; on kinase domain of PDGFRβ, 0%.

Consider `CNC(=O)c1cc(Oc2ccc3nc(NC(C)C(O)c4cc(OC)ccc4OC)sc3c2)ccn1` (stereo not drawn) [Compound 123], for which the values for the inhibition at 1 µM (in experiment [1] (compounds of Table 3); at kinase domain of cKIT (compounds of Table 3); on kinase domain of PDGFRβ (compounds of Table 3)) were 62%, 1% and 0%, respectively.

As for `CNC(=O)c1cc(Oc2ccc3nc(Nc4ccc(Cl)c(C(F)(F)F)c4)sc3c2)ccn1` [Compound 126, 4-[2-(4-Chloro-3-trifluoromethyl-phenylamino)-benzothiazol-6-yloxy]-pyridine-2-carboxylic acid methylamide], the figures for the inhibition at 1 µM (in experiment [1]; at kinase domain of cKIT; on kinase domain of PDGFRβ) were 68%, 83% and 99%, respectively.

For `CNC(=O)c1cc(Oc2ccc3nc(NCC(O)COC)sc3c2)ccn1` (stereo not drawn) [Compound 127], the inhibition at 1 µM in experiment [1] (compounds of Table 3) was found to be 95%; on kinase domain of cKIT (compounds of Table 3), 0%; at kinase domain of PDGFRβ (compounds of Table 3), 0%.

As to `CNC(=O)c1cc(Oc2ccc3nc(NC4CCCCCCC4)sc3c2)ccn1` [Compound 129], the results for the inhibition at 1 µM (in experiment [1] (compounds of Table 3); at kinase domain of cKIT (compounds of Table 3); at kinase domain of PDGFRβ (compounds of Table 3)) were 100%, 99% and 99%, respectively.

As to `CNC(=O)c1cc(Oc2ccc3nc(N[C@H]4CC[C@@H](NC(=O)c5ccccc5)CC4)sc3c2)ccn1` [Compound 135], the inhibition at 1 µM in experiment [1] (compounds of Table 3) worked out at 75%; at kinase domain of cKIT (compounds of Table 3), 21%; at kinase domain of PDGFRβ (compounds of Table 3), 11%.

On to `CNC(=O)c1cc(Oc2ccc3nc(N[C@H]4CC[C@@H](NC(=O)[C@@H]5CCCO5)CC4)sc3c2)ccn1` [Compound 136], for which the inhibition at 1 µM in experiment [1] (compounds of Table 3) was determined as 86%; at kinase domain of cKIT (compounds of Table 3) it was 3%; on kinase domain of PDGFRβ (compounds of Table 3) it was 0%.

As for `CNC(=O)c1cc(Oc2ccc3nc(N[C@H]4CC[C@@H](NC(=O)[C@@H]5CCCN5C)CC4)sc3c2)ccn1` [Compound 137], the inhibition at 1 µM in experiment [1] (compounds of Table 3) was determined as 71%; on kinase domain of cKIT (compounds of Table 3), 8%; on kinase domain of PDGFRβ (compounds of Table 3), 2%.

Consider `CNC(=O)c1cc(Oc2ccc3nc(N[C@@H]4CCCC[C@H]4OCc4ccccc4)sc3c2)ccn1` [Compound 155, 4-[2-((1R,2R)-2-Benzyloxy-cyclohexylamino)-benzothiazol-6-yloxy]-pyridine-2-carboxylic acid methylamide], for which the inhibition at 1 µM in experiment [1] amounted to 87%; on kinase domain of cKIT, 0%; at kinase domain of PDGFRβ it was 8%.
